Test results: ChEMBL document CHEMBL3580594, “Synthesis and biological evaluation of 4-substituted fluoronucleoside analogs for the treatment of hepatitis B virus infection” (J Med Chem, 2015)

Assays:
[1] = Cytotoxicity against human HepG2.2.15 cells by MTT assay; format: cell-based, HepG2 2.2.15
Hepatitis B virus [2] = test: Antiviral activity against Hepatitis B virus in HepG2.2.15 cells assessed as inhibition of intracellular/extracellular viral DNA replication at 0.2 to 5 uM by real-time FQ-PCR analysis; format: functional, organism-based; conditions: HepG2 2.2.15, TDE = time-dependent effect
Hepatitis B virus [3] = test: Antiviral activity against Hepatitis B virus in HepG2.2.15 cells assessed as inhibition of intracellular/extracellular viral DNA replication after 3 to 9 days by real-time FQ-PCR analysis; format: functional, organism-based; conditions: HepG2 2.2.15
Mus musculus [4] = test: Acute toxicity in KM mouse assessed as adverse effect at 200 mg/kg, iv suspended in normal saline; format: organism-based; conditions: in vivo
Mus musculus [5] = test: Acute toxicity in KM mouse assessed as listlessness at 300 mg/kg, iv suspended in normal saline; format: organism-based; conditions: in vivo
Mus musculus [6] = test: Acute toxicity in KM mouse assessed as death at 400 mg/kg, iv suspended in normal saline; format: organism-based; conditions: in vivo
Mus musculus [7] = test: Acute toxicity in KM mouse assessed as weight loss at 3 g/kg, iv suspended in 0.5% CMC/Na solution after 14 days; format: organism-based; conditions: in vivo, 3000 mg/kg, 336 h
Mus musculus [8] = test: Toxicity in KM mouse assessed as peripheral WBC number in blood per liter at 20 mg/kg, po single dose after 48 hrs (reference value: 11.10 x 2.69/L x 10^-9 cells); format: organism-based; conditions: in vivo
Mus musculus [9] = test: Toxicity in KM mouse assessed as micronucleus frequency in bone marrow polychromatic erythrocyte at 40 mg/kg, po single dose after 48 hrs (reference value: 2.20 +/- 0.84 %); format: organism-based; conditions: in vivo
Mus musculus [10] = test: Toxicity in KM mouse assessed as micronucleus frequency in bone marrow polychromatic erythrocyte at 80 mg/kg, po single dose after 48 hrs (reference value: 2.20 +/- 0.84 %); format: organism-based; conditions: in vivo
Mus musculus [11] = test: Toxicity in KM mouse assessed as peripheral WBC number in blood per liter at 5 mg/kg/day, po 5 doses (reference value: 7.47 +/- 33.77 /L x 10^-9 cells); format: organism-based; conditions: in vivo
Mus musculus [12] = test: Toxicity in KM mouse assessed as peripheral WBC number in blood per liter at 10 mg/kg/day, po 5 doses (reference value: 7.47 +/- 33.77 /L x 10^-9 cells); format: organism-based; conditions: in vivo
Mus musculus [13] = test: Toxicity in KM mouse assessed as peripheral WBC number in blood per liter at 20 mg/kg/day, po 5 doses (reference value: 7.47 +/- 33.77 /L x 10^-9 cells); format: organism-based; conditions: in vivo
Mus musculus [14] = test: Toxicity in KM mouse assessed as micronucleus frequency in bone marrow polychromatic erythrocyte at 5 mg/kg, po single dose after 48 hrs (reference value: 1.20 +/- 0.45 %); format: organism-based; conditions: in vivo
Hepatitis B virus [15] = test: Antiviral activity against Hepatitis B virus in HepG2.2.15 cells assessed as inhibition of intracellular viral DNA replication at 0.2 uM after 3 days by real-time FQ-PCR analysis; format: functional; conditions: HepG2 2.2.15, 72 h
Hepatitis B virus [16] = test: Antiviral activity against Hepatitis B virus in HepG2.2.15 cells assessed as inhibition of intracellular viral DNA replication at 1 uM after 3 days by real-time FQ-PCR analysis; format: functional; conditions: HepG2 2.2.15, 72 h
Hepatitis B virus [17] = test: Antiviral activity against Hepatitis B virus in HepG2.2.15 cells assessed as inhibition of intracellular viral DNA replication at 5 uM after 3 days by real-time FQ-PCR analysis; format: functional; conditions: HepG2 2.2.15, 72 h
Hepatitis B virus [18] = test: Antiviral activity against Hepatitis B virus in HepG2.2.15 cells assessed as inhibition of intracellular viral DNA replication at 1 uM after 6 days by real-time FQ-PCR analysis; format: functional; conditions: HepG2 2.2.15, 144 h
Hepatitis B virus [19] = test: Antiviral activity against Hepatitis B virus in HepG2.2.15 cells assessed as inhibition of intracellular viral DNA replication at 5 uM after 9 days by real-time FQ-PCR analysis; format: functional; conditions: HepG2 2.2.15, 216 h
Hepatitis B virus [20] = test: Antiviral activity against Hepatitis B virus in HepG2.2.15 cells assessed as inhibition of extracellular viral DNA replication at 1 uM after 3 days by real-time FQ-PCR analysis; format: functional; conditions: HepG2 2.2.15, 72 h
Hepatitis B virus [21] = test: Antiviral activity against Hepatitis B virus in HepG2.2.15 cells assessed as inhibition of extracellular viral DNA replication at 5 uM after 6 days by real-time FQ-PCR analysis; format: functional; conditions: HepG2 2.2.15, 144 h
Hepatitis B virus [22] = test: Antiviral activity against Hepatitis B virus in HepG2.2.15 cells assessed as inhibition of extracellular viral DNA replication at 0.2 uM after 9 days by real-time FQ-PCR analysis; format: functional; conditions: HepG2 2.2.15, 216 h
Hepatitis B virus [23] = test: Antiviral activity against Hepatitis B virus in HepG2.2.15 cells assessed as inhibition of extracellular viral DNA replication at 1 uM after 9 days by real-time FQ-PCR analysis; format: functional; conditions: HepG2 2.2.15, 216 h
Duck hepatitis B virus [24] = test: Antiviral activity against duck Hepatitis B virus infected in po dosed duck assessed as inhibition of viral DNA replication in liver; format: functional, organism-based
Duck hepatitis B virus [25] = test: Antiviral activity against duck Hepatitis B virus infected in duck assessed as inhibition of viral DNA replication in liver at 0.04 to 20 mg/kg, po; format: functional, organism-based; conditions: TDE = time-dependent effect
Duck hepatitis B virus [26] = test: Antiviral activity against duck Hepatitis B virus infected in duck assessed as inhibition of viral DNA replication in serum at 0.2 mg/kg/day, po treatment initiated at day 5 after infection relative to control; format: functional; conditions: 120 h
Duck hepatitis B virus [27] = test: Antiviral activity against duck Hepatitis B virus infected in duck assessed as inhibition of viral DNA replication in serum at 1 mg/kg/day, po treatment initiated at day 5 after infection relative to control; format: functional; conditions: 120 h
Duck hepatitis B virus [28] = test: Antiviral activity against duck Hepatitis B virus infected in duck assessed as inhibition of viral DNA replication in serum at 0.2 mg/kg/day, po measured after 3 days of treatment withdrawal; format: functional; conditions: 72 h
Duck hepatitis B virus [29] = test: Antiviral activity against duck Hepatitis B virus infected in duck assessed as inhibition of viral DNA replication in liver at 1 mg/kg/day, po treatment initiated at day 5 after infection relative to control; format: functional; conditions: 120 h
Duck hepatitis B virus [30] = test: Antiviral activity against duck Hepatitis B virus infected in duck assessed as inhibition of viral DNA replication in liver at 0.04 mg/kg/day, po treatment initiated at day 10 after infection relative to control; format: functional; conditions: 240 h
Duck hepatitis B virus [31] = test: Antiviral activity against duck Hepatitis B virus infected in duck assessed as inhibition of viral DNA replication in liver at 0.2 mg/kg/day, po measured after 3 days of treatment withdrawal; format: functional; conditions: 72 h
Duck hepatitis B virus [32] = test: Antiviral activity against duck Hepatitis B virus infected in duck assessed as inhibition of viral DNA replication in liver at 1 mg/kg/day, po measured after 3 days of treatment withdrawal; format: functional; conditions: 72 h
Rattus norvegicus [33] = test: In vivo drug metabolism in rat urine sample assessed as 1-((2R,3S,4R,5R)-5-azido-3-fluoro-4-hydroxy-5-(hydroxymethyl)tetrahydrofuran-2-yl)-4-(2-hydroxycyclopropylamino)pyrimidin-2(1H)-one formation by LC-MS/MS analysis; format: ADME, organism-based
Rattus norvegicus [34] = organism: Rattus norvegicus; test: Drug metabolism in rat urine sample assessed as 4-amino-1-((2R,3S,4R,5R)-5-azido-3-fluoro-4-hydroxy-5-(hydroxymethyl)tetrahydrofuran-2-yl)pyrimidin-2(1H)-one formation by NMR spectrum; format: ADME, organism-based; conditions: in vivo

## [N-]=[N+]=N[C@]1(CO)O[C@@H](n2ccc(NC3CC3)nc2=O)[C@@H](F)[C@@H]1O
[1]
  CC50: 391 µM
Hepatitis B virus [2]
  inhibition: tde
Hepatitis B virus [3]
  inhibition: Dose-dependent effect
Mus musculus [4]
  Activity: Non-toxic
Mus musculus [5]
  Activity: Toxic
Mus musculus [6]
  Activity: Toxic
Mus musculus [7]
  Activity: Non-toxic
Mus musculus [8]
  Activity: 8.84 ×10⁹ /L
Mus musculus [9]
  Activity: 1.4%
Mus musculus [10]
  Activity: 1.8%
Mus musculus [11]
  Activity: 6.05 ×10⁹ /L
Mus musculus [12]
  Activity: 8.09 ×10⁹ /L
Mus musculus [13]
  Activity: 6.53 ×10⁹ /L
Mus musculus [14]
  Activity: 1.2%
Hepatitis B virus [15]
  inhibition at 0.2 µM: 20.6%
Hepatitis B virus [16]
  inhibition at 1 µM: 39.2%
Hepatitis B virus [17]
  inhibition at 5 µM: 46.2%
Hepatitis B virus [18]
  inhibition at 1 µM: 49.5%
Hepatitis B virus [19]
  inhibition at 5 µM: 68.2%
Hepatitis B virus [20]
  inhibition at 1 µM: 54%
Hepatitis B virus [21]
  inhibition at 5 µM: 84%
Hepatitis B virus [22]
  inhibition at 0.2 µM: 52.1%
Hepatitis B virus [23]
  inhibition at 1 µM: 76.2%
Duck hepatitis B virus [24]
  inhibition: Dose-dependent effect
Duck hepatitis B virus [25]
  inhibition: tde
Duck hepatitis B virus [26]
  inhibition in vivo at 0.2 mg/kg/day: 62.5%
Duck hepatitis B virus [27]
  inhibition in vivo at 1 mg/kg/day: 71.9%
Duck hepatitis B virus [28]
  inhibition in vivo at 0.2 mg/kg/day: 66%
Duck hepatitis B virus [29]
  inhibition in vivo at 1 mg/kg/day: 64.1%
Duck hepatitis B virus [30]
  inhibition in vivo at 0.04 mg/kg/day: 62.8%
Duck hepatitis B virus [31]
  inhibition in vivo at 0.2 mg/kg/day: 63.1%
Duck hepatitis B virus [32]
  inhibition in vivo at 1 mg/kg/day: 76.1%
Rattus norvegicus [33]
  Drug metabolism: metabolite_detected
Rattus norvegicus [34]
  Drug metabolism: metabolite_detected
